The source of these data is patent publication US11459312B2, “Sulphur substituted 3-oxo-2,3-dihydropyridazine-4-carboxamides” (Bayer Aktiengesellschaft, priority 2017, dated 2022).

Molecules are shown by their SMILES.

In the test the target is T1, AHR (Homo sapiens, UniProt P35869).
T1 sequence (P35869 11-848): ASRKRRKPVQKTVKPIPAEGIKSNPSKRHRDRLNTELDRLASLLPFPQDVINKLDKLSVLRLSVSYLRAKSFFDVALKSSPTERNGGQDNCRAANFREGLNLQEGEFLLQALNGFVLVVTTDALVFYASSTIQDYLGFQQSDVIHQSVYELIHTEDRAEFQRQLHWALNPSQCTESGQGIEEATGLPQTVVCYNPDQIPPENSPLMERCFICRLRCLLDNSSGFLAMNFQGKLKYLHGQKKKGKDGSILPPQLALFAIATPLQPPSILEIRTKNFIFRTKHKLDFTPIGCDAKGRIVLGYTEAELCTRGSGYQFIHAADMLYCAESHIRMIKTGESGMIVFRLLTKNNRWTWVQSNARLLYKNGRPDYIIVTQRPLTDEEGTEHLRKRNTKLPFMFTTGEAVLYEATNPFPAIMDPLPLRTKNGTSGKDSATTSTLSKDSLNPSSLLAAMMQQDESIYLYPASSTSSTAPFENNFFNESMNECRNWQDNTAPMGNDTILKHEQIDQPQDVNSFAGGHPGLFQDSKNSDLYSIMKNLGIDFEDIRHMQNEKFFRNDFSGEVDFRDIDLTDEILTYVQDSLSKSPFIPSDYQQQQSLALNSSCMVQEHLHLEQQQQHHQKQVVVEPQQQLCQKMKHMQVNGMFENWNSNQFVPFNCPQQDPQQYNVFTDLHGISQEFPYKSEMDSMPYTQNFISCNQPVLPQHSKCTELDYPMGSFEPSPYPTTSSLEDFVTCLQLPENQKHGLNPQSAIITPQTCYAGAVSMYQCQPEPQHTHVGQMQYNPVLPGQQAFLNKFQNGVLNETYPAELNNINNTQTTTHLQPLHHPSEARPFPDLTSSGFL
As to the kind of experiment: In vitro assay 1: AHR-luc transactivation assay, antagonism in human cell line (U87 glioblastoma cells, kynurenic acid prestimulated). It is filed as cell-based. Details: U87 glioblastoma cells (ATCC) endogenously expressing AHR; host or cells: U87 glioblastoma cells, stably transfected with DRE-firefly luciferase and renilla reporter constructs only. The following applies: firefly luciferase DRE reporter, 150 μM kynurenic acid, 20 hours, read-out: Assay 1: AHR-luc Hum Antagonism IC50. On the procedure: Transactivation Assay in Human Cell Line (In Vitro Assays 1 and 2)
Transactivation assays were carried out in U87 glioblastoma cells (ATCC) endogenously expressing AHR. In addition the cells were stably transfected with an AHR inducible firefly luciferase reporter gene construct that carried AHR-binding sites (DRE) in its promoter and a renilla reporter gene construct with constitutively active promoter. Kynurenic acid is an endogenous AHR activating ligand and was used to prestimulate test cells prior to testing the antagonistic properties of compounds.
In Vitro Assay 1: Antagonism in Human Cell Line
Cells in medium (tryptophan free RPMI, 1% FCS, 2 mM Glutamine) supplemented with 150 μM kynurenic acid were grown for 20 hours in absence (negative control) or presence of increasing concentrations of test compounds (typical dilutions: […], 0.25 nmol/L, 0.89 nmol/L; 3.1 nmol/L, 11 nmol/L, 38 nmol/L, 130 nmol/L, 470 nmol/L, 1.6 μmol/L, 5.7 μmol/L and 20 μmol/L in duplicates). As positive inhibition control cells supplemented with 150 μM kynurenic acid were incubated in presence of 5 μM Staurosporin. Normalization was done by positive and negative controls.
Firefly luciferase and Renilla activity was determined by the DualGlo Luciferase Assay System (Promega, #2920). Renilla activity was used to assess toxic effects of compounds.

In general, IC50 refers to the concentration that gives 50% inhibition. On to `C[C@@H](CS(C)(=N)=O)NC(=O)c1cc(-c2ccc(C(F)(F)F)cc2)nn(-c2cnn(C)c2)c1=O` (single isomer, unassigned) [Example 39], for which the IC50 is 133 nM.

Take `CS(=O)(=O)CCNC(=O)c1cc(-c2ccc(Cl)cc2)nn(-c2cccc(F)c2)c1=O` [Example 59, 6-(4-Chlorophenyl)-2-(3-fluorophenyl)-N-[2-(methylsulfonyl)ethyl]-3-oxo-2,3-dihydropyridazine-4-carboxamide]: the IC50 was found to be 326 nM.

Take `O=C(N[C@@H]1C[S+]([O-])C[C@@H]1O)c1cc(-c2ccc(C(F)(F)F)cc2)nn(-c2cccnc2)c1=O` (relative stereo) [Example 33, N-[(cis)-4-hydroxy-1-oxidotetrahydro-thiophen-3-yl]-3-oxo-2-(pyridin-3-yl)-6-[4-(trifluoromethyl)phenyl]-2,3-dihydropyridazine-4-carboxamide]: the IC50 was found to be 139 nM.

Take `O=C(N[C@@H]1C[S+]([O-])C[C@@H]1O)c1cc(-c2ccc(Cl)cc2)nn(-c2cccc(F)c2)c1=O` (single isomer, unassigned) [Example 26, 6-(4-chlorophenyl)-2-(3-fluorophenyl)-N-[(cis)-4-hydroxy-1-oxidotetrahydro-thiophen-3-yl]-3-oxo-2,3-dihydropyridazine-4-carboxamide]: the IC50 was 33.3 nM.

`O=C(N[C@@H]1CS(=O)(=O)C[C@@H]1O)c1cc(-c2ccc(C(F)(F)F)nc2)nn(-c2cccc(F)c2)c1=O` (single isomer, unassigned) [Example 21, (−)-2-(3-fluorophenyl)-N-[(cis)-4-hydroxy-1,1-dioxidotetrahydro-thiophen-3-yl]-3-oxo-6-[6-(trifluoromethyl)pyridin-3-yl]-2,3-dihydropyridazine-4-carboxamide]: the IC50 was 205 nM.

Take `O=C(N[C@@H]1C[S+]([O-])C[C@@H]1O)c1cc(-c2ccc(C(F)(F)F)cc2)nn(-c2cccnc2)c1=O` (single isomer, unassigned) [Example 34, N-[(cis)-4-hydroxy-1-oxidotetrahydro-thiophen-3-yl]-3-oxo-2-(pyridin-3-yl)-6-[4-(trifluoromethyl)phenyl]-2,3-dihydropyridazine-4-carboxamide]: the IC50 is 78.8 nM.

Consider `O=C(N[C@@H]1CS(=O)(=O)C[C@@H]1O)c1cc(-c2ccc(C(F)(F)F)cc2)nn(-c2cnsc2)c1=O` (single isomer, unassigned) [Example 12, (+)-N-[(cis)-4-hydroxy-1,1-dioxidotetra-hydrothiophen-3-yl]-3-oxo-2-(1,2-thiazol-4-yl)-6-[4-(trifluoromethyl)phenyl]-2,3-dihydropyridazine-4-carboxamide], for which the IC50 was 1.11 nM.

As for `C[C@@H](C[S+](C)[O-])NC(=O)c1cc(-c2ccc(Cl)cc2)nn(-c2cccc(F)c2)c1=O` (single isomer, unassigned) [Example 5], the IC50 came out at 180 nM.

Regarding `CS(=N)(=O)CCNC(=O)c1cc(-c2ccc(Cl)cc2)nn(-c2cccc(F)c2)c1=O` (single isomer, unassigned) [Example 54, 6-(4-Chlorophenyl)-2-(3-fluorophenyl)-N-[2-(S-methylsulfonimidoyl)ethyl]-3-oxo-2,3-dihydropyridazine-4-carboxamide], the IC50 amounted to 581 nM.

Turning to `C[C@@H](CS(C)(=N)=O)NC(=O)c1cc(-c2ccc(Cl)cc2)nn(-c2cccc(F)c2)c1=O` (single isomer, unassigned) [Example 7], the IC50 was 241 nM.

Consider `O=C(N[C@@H]1C[S+]([O-])C[C@@H]1O)c1cc(-c2ccc(Cl)cc2)nn(-c2cccc(F)c2)c1=O` (single isomer, unassigned; (+)) [Example 31, (+)-6-(4-chlorophenyl)-2-(3-fluorophenyl)-N-[(cis)-4-hydroxy-1-oxidotetrahydro-thiophen-3-yl]-3-oxo-2,3-dihydropyridazine-4-carboxamide], for which the IC50 was 145 nM.

For the molecule `C[C@@H](CS(C)(=O)=NC(=O)C(F)(F)F)NC(=O)c1cc(-c2ccc(C(F)(F)F)cc2)nn(-c2cnn(C)c2)c1=O` (stereo partly drawn) [Example 41, 2-(1-Methyl-1H-pyrazol-4-yl)-N-{(2S)-1-[S-methyl-N-(trifluoroacetyl)sulfonimidoyl]propan-2-yl}-3-oxo-6-[4-(trifluoromethyl)phenyl]-2,3-dihydropyridazine-4-carboxamide], the IC50 was found to be 39.2 nM.

Take `C[C@@H](CS(C)(=N)=O)NC(=O)c1cc(-c2ccc(C(F)(F)F)cc2)nn(-c2cnn(C)c2)c1=O` (single isomer, unassigned) [Example 40]: the IC50 was determined as 80.3 nM.

As for `O=C(N[C@@H]1C[S+]([O-])C[C@@H]1O)c1cc(-c2ccc(C(F)(F)F)cc2)nn(-c2cccnc2)c1=O` (single isomer, unassigned) [Example 36, N-[(cis)-4-hydroxy-1-oxidotetrahydro-thiophen-3-yl]-3-oxo-2-(pyridin-3-yl)-6-[4-(trifluoromethyl)phenyl]-2,3-dihydropyridazine-4-carboxamide], the IC50 was 295 nM.

With `O=C(N[C@@H]1C[S+]([O-])C[C@@H]1O)c1cc(-c2ccc(Cl)cc2)nn(-c2cccc(F)c2)c1=O` (single isomer, unassigned; (-)) [Example 28, (−)-6-(4-chlorophenyl)-2-(3-fluorophenyl)-N-[(cis)-4-hydroxy-1-oxidotetrahydro-thiophen-3-yl]-3-oxo-2,3-dihydropyridazine-4-carboxamide], the IC50 came to 13.4 nM.

With `N=S1(=O)C[C@H](O)[C@H](NC(=O)c2cc(-c3ccc(Cl)cc3)nn(-c3cccc(F)c3)c2=O)C1` (single isomer, unassigned) [Example 43, 6-(4-chlorophenyl)-2-(3-fluorophenyl)-N-[(cis)-4-hydroxy-1-imino-1-oxidotetrahydro-1H-1lambda4-thiophen-3-yl]-3-oxo-2,3-dihydropyridazine-4-carboxamide], the IC50 amounted to 43.8 nM.

For the molecule `O=C(N[C@@H]1CS(=O)(=O)C[C@@H]1O)c1cc(-c2ccc(C(F)(F)F)cc2)nn(-c2cccnc2)c1=O` (single isomer, unassigned) [Example 18], the IC50 turned out to be 38.2 nM.

Consider `CS(=N)(=O)CCNC(=O)c1cc(-c2ccc(Cl)cc2)nn(-c2cccc(F)c2)c1=O` (single isomer, unassigned) [Example 53, 6-(4-Chlorophenyl)-2-(3-fluorophenyl)-N-[2-(S-methylsulfonimidoyl)ethyl]-3-oxo-2,3-dihydropyridazine-4-carboxamide], for which the IC50 was 843 nM.

In the case of `O=C(N[C@@H]1C[S+]([O-])C[C@@H]1O)c1cc(-c2ccc(C(F)(F)F)cc2)nn(-c2cccnc2)c1=O` (single isomer, unassigned) [Example 37, N-[(cis)-4-hydroxy-1-oxidotetrahydro-thiophen-3-yl]-3-oxo-2-(pyridin-3-yl)-6-[4-(trifluoromethyl)phenyl]-2,3-dihydropyridazine-4-carboxamide], the IC50 was 150 nM.

As to `O=C(N[C@@H]1CS(=O)(=O)C[C@@H]1O)c1cc(-c2ccc(C(F)(F)F)cc2)nn(-c2cccnc2)c1=O` (relative stereo) [Example 16, N-[(cis)-4-hydroxy-1,1-dioxidotetrahydro-thiophen-3-yl]-3-oxo-2-(pyridin-3-yl)-6-[4-(trifluoromethyl)phenyl]-2,3-dihydropyridazine-4-carboxamide], the IC50 amounted to 29.2 nM.
